# Key:
# [1] = test system: αSMA; experiment: TGFβ1-mediated αSMA protein expression in human dermal fibroblasts, western blot; format: cell-based; details: HDF; for TGFβ1-triggered upregulation of αSMA protein levels: NAC 5.0 mM 4 h or Na2SeO3 0.5 μM 24 h pretreatment, rTGFβ1 5 ng/ml, 48 h after growth factor
# Experimental: Human dermal fibroblasts (HDF) were established by outgrowth from foreskin biopsies of healthy human donors with an age of 3-6 years. Cells were used in passages 2-12, corresponding to cumulative population doubling levels of 3-27 [15]. Dermal fibroblasts and the squamous carcinoma cell line SCL-1, originally derived from the face of a person (generously provided by Prof. Dr Norbert Fusenig, DKFZ Heidelberg, Germany), were cultured as described. Myofibroblasts (MF) were generated by treatment of HDFs with different concentrations of recombinant TGFβ1 (5 ng/ml) for 48 h in HDF conditioned medium (CMHDF).
# SDS-PAGE was performed according to the standard protocols published elsewhere with minor modifications. Briefly, cells were lysed after incubation with rTGFβ1 in 1% SDS with 1:1000 protease inhibitor cocktail (Sigma; Taufkirchen, Germany). After sonication, the protein concentration was determined by using a modified Lowry method (Bio-Rad DC). 2×SDS-PAGE sample buffer (1.5 M Tris-HCl pH 6.8, 6 ml 20% SDS, 30 ml glycerol, 15 ml β-mercaptoethanol and 1.8 mg bromophenol blue was added, and after heating, the samples (10 μg total protein/lane) were applied to 10% (w/v) SDS-polyacrylamide gels. After electroblotting, immunodetection was carried out (1:1000 dilution of primary antibodies (mouse monoclonal anti-SMA and tubulin), 1:20000 dilution of anti-mouse antibody conjugated to HRP). Antigen-antibody complexes were visualized by an enhanced chemiluminescence system. Alpha-tubulin was used as internal control for equal loading.
# [2] = test system: αSMA mRNA; experiment: αSMA mRNA, quantitative real-time RT-PCR in human dermal fibroblasts; format: cell-based; details: HDF; 24 h after treatment; normalised to HPRT1
# Experimental: Total RNA was isolated and transcribed into cDNA as described. Expression of mRNA was analyzed by real-time RT-PCR using a LightCycler system (Roche; Mannheim, Germany) as described. Real-time RT-PCR was performed with 40 ng cDNA in glass capillaries containing LightCycler FastStart DNA Master SYBR Green I Reaction Mix (Roche), 2 mM MgCl2 and 1 μM of primers. Quantitation of the PCR amplicons was performed using the LightCycler Software. Hypoxanthine phosphoribosyltransferase (HPRT1) was used as internal normalization control.
# [3] = test system: SCL-1 cells; experiment: Intracellular ROS, DCF fluorescence, tumor cells; format: cell-based, human; details: 250 μM H2O2, technical control; data not shown
# Experimental: Generation of ROS was determined using 2′,7′-Dichlorodihydrofluorescein diacetate (H2DCF-DA), a dye that diffuses across the lipid membranes into cells and is subsequently oxidized by intracellular ROS forming the highly fluorescent DCF. Subconfluent HDF and SCL-1 tumor cells were exposed to 50 μM or 150 μM CNP in serum-free DMEM in 24-well plates. Untreated subconfluent SCL-1 cells were used as negative controls. Medium was substituted after 24 h by 100 μM H2DCF-DA containing Hanks Balanced Salt Solution (HESS). DCF fluorescence was detected at an excitation wavelength of 485 nm and emission wavelength of 520 nm in 15 minutes intervals in a FLUOstar OPTIMA plate reader (BMG Labtech, Offenburg, Germany). Mean fluorescence intensities and standard error of mean were determined for each reading point by using the statistical software Prism 3.0 (GraphPad, San Diego, Calif., USA).
# [4] = test system: SCL-1 cells; experiment: Oxidized (carbonylated) proteins, Oxyblot, tumor cells; format: cell-based, human; details: 250 μM H2O2 for 1 h
# Experimental: Dermal fibroblasts or tumor cells were grown to subconfluence on tissue culture dishes. After removal of serum-containing medium, HDF were cultured in CM^HDF and either mock-treated or pretreated for 40 h with 150 μM CeO2 nanoparticles prior to addition of 10 ng rTGFβ1/ml for additional 8 h. Tumor cells were mock-treated or treated with 150 μM CNP for 16 h. As positive control, the cells were treated with 250 μM H2O2 for 1 h. Thereafter, cells were lysed and carbonyl groups of oxidized proteins were detected with the OxyBlot™ Protein Oxidation Detection Kit, following the manufacturer's protocol. Briefly, the protein concentration was determined by using a modified Lowry method (Bio-Rad DC). The protein amounts of the samples were aligned. 5 μg of this cell lysate was incubated with 2,4-dinitrophenyl (DNP) hydrazine to form the DNP hydrazone derivatives. Labeled proteins were separated by SDS-PAGE and immunostained using rabbit anti-DNP antiserum (1:500) and goat anti-rabbit IgG conjugated to horseradish peroxidase (1:2000). Blots were developed by enhanced chemiluminescence.
# [5] = mouse, in vivo, iv, 0.5 mg/kg
# Experimental: Eight-week-old, CD-1 mice were divided into two groups. Controls were given weekly doses of 100 μl sterile PBS only by intravenous (IV) administration. The nanoceria group received five doses (one dose a week) of 0.5 mg/kg of nanoceria suspended in 100 μl of sterile saline (IV). Both groups were sacrified on the sixth week. Skin tissue from the back of each animal was excised and hair removed. The tissue was patted dry, weighed and placed in 70% nitric acid overnight to start the digestion process. Samples were then microwave digested. The temperature was ramped to 200° C. over 20 min and held there for another 20 min. Samples were then boiled down to less than 1 ml each and reconstituted in water to an exact volume of 10 ml. Cerium levels were assessed using inductively coupled plasma mass spectroscopy (ICP-MS).
# [6] = test system: human dermal fibroblasts
# [7] = test system: HIF-1; experiment: HIF-1 protein expression, western blot, tumor cells; format: cell-based, human; details: SCL-1; 100 μM cobalt chloride; 4 h
# [8] = test system: HIF-1; experiment: HIF-1 protein expression, western blot, fibroblasts; format: cell-based, human; details: HDF; 100 μM cobalt chloride; 4 h
compound,measurement,setting,value
"TGFβ1: Recombinant human TGFβ1 from R&D Systems, stimulus for myofibroblast formation",αSMA protein amount compared with mock-treated control cells,"[1]; rTGFβ1 5 ng/ml for 8 to 48 h, starting at 16 h post treatment",significant time-dependent increase
same,increase in αSMA steady-state mRNA levels compared to mock-treated controls,[2],10 fold
"CC(=O)N[C@@H](CS)C(=O)O [NAC, N-acetyl-L-cysteine]",TGFβ1-triggered upregulation of αSMA protein levels,[1],completely prevented
"OO [H2O2, Hydrogen peroxide]",intracellular ROS level,[3],further increased
same,"oxidized proteins, positive control",[4],increase in oxidized proteins
cerium oxide nanoparticles [CNP],increase in the amount of CeO2 per gram skin tissue vs mock-treated mice,[5],up to 8 fold
same,cell morphology,[6],No change in morphology
"O=[Se]([O-])[O-].[Na+].[Na+] [selenite, sodium selenite]",TGFβ1-triggered upregulation of αSMA protein levels,[1],significantly lowered
[Cl][Co][Cl] [cobalt chloride],HIF-1 protein levels compared to mock-treated cells,[7],significant increase
same,HIF-1 protein expression,[8],not affected

# — US9585840B1, “Redox active cerium oxide nanoparticles and associated methods” (University of Central Florida Research Foundation, Inc., priority 2009, dated 2017)
